# Legend:
# [1] = biological target: MBP-GGDEFpssE; assay: Equilibrium dialysis assay of c-di-GMP binding by the PssE receptor; parameters: species or system L. monocytogenes
# From the text: (§1) To test the prediction that the PssE protein acts as a c-di-GMP receptor, its GGDEF domain (“GGDEF” disclosed as SEQ ID NO: 3) containing the I-site as an MBP fusion (MBP-GGDEFpssE) (“GGDEF” disclosed as SEQ ID NO: 3) was overexpressed, and this protein was purified (FIG. 5A) and analyzed for its ability to bind c-di-GMP in vitro using equilibrium dialysis. […] This value falls within the range of physiologically relevant intracellular c-di-GMP concentrations measured in other bacteria that are believed to be in the submicromolar to low micromolar range. […] Therefore, PssE is a bonafide c-di-GMP receptor that is predicted to transfer the c-di-GMP signal to activate synthesis of the listerial Pss EPS.
# For purification of MBP::PdeC and MBP::GGDEFpssE fusions (“GGDEF” disclosed as SEQ ID NO: 3), IPTG (final concentration, 0.2 mM) was added to exponentially (A600, 0.6-0.8) growing E. coli DH5α containing appropriate plasmids. After 2-h induction, cells were collected by centrifugation. […]
# (§2) Equilibrium dialysis experiments were performed as previously described. […] The nucleotide concentrations were quantified by HPLC. Binding constants were calculated by the GraphPad Prism software, version 4.03 (GraphPad Software, San Diego, Calif.) using a nonlinear regression model.
# [2] = biological target: T1, Listeria monocytogenes PssE (Lmo0531), GGDEF domain (residues 107-285) containing the I-site, as MBP fusion (MBP::GGDEFpssE) (Listeria monocytogenes, UniProt Q8Y9J6); assay: Equilibrium dialysis of c-di-GMP binding to the PssE receptor (MBP-GGDEFpssE)
# T1 construct: equilibrium dialysis
# T1 sequence (Q8Y9J6 entry or part of it): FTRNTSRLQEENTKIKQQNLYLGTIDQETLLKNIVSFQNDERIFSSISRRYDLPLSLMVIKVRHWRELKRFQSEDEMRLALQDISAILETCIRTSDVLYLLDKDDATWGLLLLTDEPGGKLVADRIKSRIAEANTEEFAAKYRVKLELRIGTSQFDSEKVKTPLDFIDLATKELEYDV
# From the text: FIGS. 5A-5B: In vitro assay of c-di-GMP binding by the PssE receptor. […] The GGDEF domain of PssE (residues 107-285) (“GGDEF” disclosed as SEQ ID NO: 3) containing the putative I-site was fused downstream of MBP, MBP::GGDEFpssE (“GGDEF” disclosed as SEQ ID NO: 3), and used in c-di-GMP binding assays. […] Shown is the dependence of the ratio of bound cdi-GMP per protein in the dialysis chamber, where protein alone was loaded, versus concentration of free c-di-GMP at equilibrium.
# as §1
# For purification of MBP::PdeC and MBP::GGDEFpssE fusions (“GGDEF” disclosed as SEQ ID NO: 3), IPTG (final concentration, 0.2 mM) was added to exponentially (A600, 0.6-0.8) growing E. coli DH5α containing appropriate plasmids. After 2-h induction, cells were collected by centrifugation. Cell pellets were resuspended in a buffer containing 200 mM NaCl, 0.5 mM EDTA, 5 mM MgCl2, 20 mM Tris-HCl (pH 7.6), and 5% glycerol that also contained protease inhibitors. […]
# as §2
# [3] = test system: L. monocytogenes; assay type: cell-based; conditions: hydrogen peroxide 200 mM, benzalkonium chloride 100 ppm; 10 min, room temperature
# Procedure: Here, the role of L. monocytogenes EPS in providing tolerance to disinfection and desiccation was evaluated. […] To distinguish between the contribution of EPS versus EPS-independent c-di-GMP-responsive agents, included in the tests were the ΔpdeB/C/D ΔpssC mutant characterized by elevated intracellular c-di-GMP levels but defective in EPS production.
# Cultures were grown in HTM with 3% glucose at 37° C. for 24 h, at which point small uniform clumps are formed by the ΔpdeB/C/D strain. Aliquots (250 μl; 10^8 cfu/ml) of these cultures were mixed with disinfectants at 1:1 vol ratios in small glass tubes that also contained 0.1 g of acid washed glass beads (Sigma Life Sciences). Following a 10-min exposure to disinfectants at room temperature, D/E neutralizing broth (500 μl; Difco) was added. Samples were vigorously vortexed (for 5 min) and clumps of the ΔpdeB/C/D strain were dispersed due to the action of the glass beads. Serial dilutions were plated on BHI agar and colonies were counted following a 48-h incubation at 37° C.
# [4] = Solubility of listerial EPS preparations; assay type: physicochemical
# From the text: Considering that chitin, a polymer of β-1,4-linked N-acetylglucosamine, is also insoluble, but chitosan, which is obtained from chitin by N-deacetylation, is soluble in dilute acid, ManNAc-Gal EPS may also be made soluble by N-deacetylation. […] To identify the sugars belonging to the anomeric signals, a series of 2-D NMR spectra was acquired. COSY and TOCSY spectra were used to assign the proton chemical shifts, and an HSQC spectrum was obtained to assign the carbon chemical shifts of the monosaccharide residues present in EPS-N. The residues and their linkage positions were identified from the proton and carbon chemical shifts. A NOESY spectrum was used to determine the monosaccharide sequence. The spectra clearly identified one of the anomeric peaks as belonging to a terminal α-galactopyranose (α-Galp) residue (Table 3).
# N-deacetylation was performed to obtain soluble EPS material for NMR studies. The insoluble EPS sample was suspended in 300 μl of 50% NaOH and heated to 80° C. for 1 h. After cooling to room temperature, the sample was diluted with 1 ml of water and acidified with glacial acetic acid (final pH˜4-5). The sample was dialyzed against running deionized water for 36 h using a 3,500 Da regenerated cellulose membrane and lyophilized. This material was designated ‘EPS-N’. EPS-N was dissolved in 5 ml of 0.4 M HCl and heated at 110° C. for 2 h for partial hydrolysis. […]
# [5] = test system: washed aggregates of strain ΔpdeB/C/D; assay: Dispersal of preformed cell aggregates; assay type: cell-based, L. monocytogenes
# [6] = Stability of PssZ hydrolytic activity on incubation; assay type: physicochemical; conditions: 3 day incubation at 30° C.
# From the text: In addition to biosynthesis proteins, the ManNAc-Gal EPS-specific glycosylhydrolase was identified and characterized. PssZ belongs to the GH8 family, whose members cleave β1-4 linkages through an inverting mechanism wherein carboxylate containing amino acid residues (i.e., Glu and Asp) perform the hydrolysis of glycosidic bonds. A conserved Glu residue present in the presumed catalytic site of PssZ was identified to be important for hydrolytic activity of PssZ (FIG. 17). The PssZ E72Q mutation largely, but not completely, abolished hydrolytic activity. […] A similar observation was reported for BcsZ, i.e., no hydrolytic activity was detected on carboxymethylcellulose in solution, whereas activity was shown on an agar plate containing carboxymethylcellulose. […] Given its relative stability, PssZ can be used for dispersing listerial EPS aggregates in food storage or processing plants, which would make listeria more susceptible to disinfectants. According to the results observed, listerial EPS-embedded aggregates are several orders of magnitude more tolerant to commonly used disinfectants than planktonic cells.
# [7] = Release of soluble carbohydrates from purified insoluble EPS (anthrone assay); assay type: biochemical, L. monocytogenes; conditions: 32 μg ml^−1 final concentration; ethanol precipitated EPS
# Procedure: Next, purified insoluble ManNAc-Gal EPS was treated with PssZ and PssZ E72Q.
# Total carbohydrates were determined using an anthrone assay. Dried EPS samples were transferred to 0.4 ml of water and mixed with an ethyl acetate solution containing anthrone reagent (2% w/v). Then, 1 ml of concentrated sulfuric acid was added to the mixture for color development. Samples were read at a wavelength of 620 nm, and glucose was used as a standard to estimate carbohydrate levels in the samples. Finally, dried EPS samples were sent to the Complex Carbohydrate Research Center (Athens, Ga., USA) for determination of monosaccharide composition, linkage, and NMR analysis.
# The EPS hydrolytic activities of PssZ and PssZ E72Q were assessed by the ability of these proteins: (i) to prevent aggregation of the growing ΔpdeB/C/D strain in HTM/G medium, (ii) to disperse nongrowing ΔpdeB/C/D aggregates; and (iii) to release soluble carbohydrates from the purified insoluble EPS fibers. (i) Different concentrations (0.13 and 1.3 μg ml^−1) of the purified PssZ and PssZ E72Q proteins were added at the beginning of strain incubation. (ii) Aggregates were washed twice and resuspended in HTM salts-MOPS medium. Proteins were added to 1 ml of aggregate suspension (32 μg ml^−1, final concentration), and samples were incubated at 30° C. with gentle shaking. […]
# [8] = test system: ΔpdeB/C/D strain; assay: Cell aggregation assay with added recombinant protein (prevention of aggregation of the growing strain); assay type: cell-based, L. monocytogenes; conditions: added to inoculum, HTM/G, 30° C., 24 h
molecule,measurement,setting,value
"Nc1nc2c(ncn2[C@@H]2O[C@@H]3COP(=O)(O)O[C@H]4[C@@H](O)[C@H](n5cnc6c(=O)[nH]c(N)nc65)O[C@@H]4COP(=O)(O)O[C@H]3[C@H]2O)c(=O)[nH]1 [c-di-GMP, Cyclic dimeric GMP]",Kd,"[1]; 25 h, room temperature, protein 20 μM, c-di-GMP 1 to 50 μM, read-out: apparent Kd",790 ± 170 nM
same,"binding capacity, Bmax",[1]; nonlinear regression,2.03±0.12 μM c-di-GMP (μM protein)^−1
same,Kd,[2],790 ± 170 nM
same,Bmax (binding capacity),"[2]; equilibrium dialysis, 25 h at room temperature",2.03±0.12 μM c-di-GMP (μM protein)^−1
same,c-di-GMP molecules bound per PssE molecule at saturation,[2]; from Bmax,two
OO [hydrogen peroxide],tolerance of ΔpdeB/C/D mutant compared to wild type or ΔpdeB/C/D ΔpssC mutant,[3],approximately 10^2 fold
benzalkonium chloride,tolerance of ΔpdeB/C/D mutant compared to wild type or ΔpdeB/C/D ΔpssC mutant,[3],approximately 10^2 fold
{4)-β-ManpNAc-(1-4)-[α-Galp-(1-6)]-β-ManpNAc-(1-} [ManNAc-Gal EPS],solubility of native material,[4],completely insoluble
"PssZ: L. monocytogenes ManNAc-Gal EPS-specific glycosylhydrolase; SEQ ID NO: 1, purified fragment SEQ ID NO: 2 (protein, His6 tag; Listeria monocytogenes) RPESKKTVSAPKETTPTSTSVQTYVKENYTAKNGLIMDYKNTEEPHYLAESIGLYMEYLVEVNDSKTFQKQVNHLEKYFIAEDNFIKWEATDSTTTNAIVDDFRITEALYQASEKFSFPSYKKMADKFLTNTKKYSAEQGVPVDFYDFVHKKKADTLHLSYLNIQAMQQINYRDKAYLPIQTINADPFFTEVFQNGQFKFADQKEVNMIDQMLIAIAYYDENGDIEPNFDNFLQTELASKGKIYARYQRETKKPSSENESTAVYAFLTQYFNKTNQAKNGKITKELLEKMDTSNPETTHFFDYINKEITLKK",dispersal of preformed cell aggregates,"[5]; 32 μg ml^−1 final concentration, 6 h, 30° C., HTM salts without carbon source",dispersed cell aggregates almost completely
same,presence of reducing sugars in supernatants after treatment of cell aggregates,[5]; supernatants after treatment of cell aggregates,able to be detected
same,hydrolytic activity retained after incubation,[6],retains partial hydrolytic activity
same,hydrolytic activity on purified insoluble EPS (anthrone assay),[7],did not detect any PssZ activity
same,inhibition of cell aggregation,[8]; 0.13 μg ml^−1 final concentration,inhibited aggregation partially
same,inhibition of cell aggregation,[8]; 1.3 μg ml^−1 final concentration,inhibited it completely
